One block for each compound: values may come before it.
Tests used:
[1] = Oral bioavailability in rat; type: ADME, organism-based; conditions: in vivo
[2] = Clearance in rat; type: ADME, organism-based; conditions: in vivo
[3] = Half life in rat at 10 mg/kg, po; type: ADME, organism-based; parameters: dose 10 mg/kg, route oral; conditions: in vivo
[4] = AUC (0 to infinity) in rat at 10 mg/kg, po; type: ADME, organism-based; parameters: time infinity, dose 10 mg/kg, route oral; conditions: plasma
[5] = Oral bioavailability in rat at 10 mg/kg; type: ADME, organism-based; conditions: in vivo
[6] = Drug uptake in VEGF-stimulated mouse lung at 3 mg/kg, po after 4 hrs; type: ADME, organism-based; parameters: dose 3 mg/kg, route oral; conditions: read-out: Drug uptake
Plasma [7] = assay: Plasma concentration in human MDA-MB-231 cells xenografted mouse at 30 mg/kg; type: ADME, organism-based; parameters: dose 30 mg/kg; conditions: in vivo
[8] = Plasma concentration in VEGF stimulated-mouse at 3 mg/kg, po after 4 hrs; type: ADME, organism-based; parameters: dose 3 mg/kg, route oral
[9] = Permeability across MDCK cells; type: ADME, cell-based, Canis lupus familiaris; conditions: dog, read-out: permeability
[10] = Plasma concentration in athymic nu/nu mouse bearing human MDA-MB-231 tumor at 10 to 100 mg/kg, po administered QD for 14 days; type: ADME, organism-based; parameters: dose 10-100 mg/kg, route oral
[11] = Drug uptake in VEGF-stimulated mouse lung at 100 mg/kg, po after 4 hrs; type: ADME, organism-based; parameters: dose 100 mg/kg, route oral; conditions: read-out: Drug uptake
Plasma [12] = assay: Plasma concentration in human MDA-MB-231 cells xenografted mouse at 3 mg/kg; type: ADME, organism-based; parameters: dose 3 mg/kg; conditions: in vivo
Plasma [13] = assay: Plasma concentration in human MDA-MB-231 cells xenografted mouse at 10 mg/kg; type: ADME, organism-based; parameters: dose 10 mg/kg; conditions: in vivo
[14] = Drug uptake in human MDA-MB-231 cells xenografted mouse tumor at 3 mg/kg; type: ADME, organism-based, Neoplasm; parameters: dose 3 mg/kg; conditions: in vivo, BLD = below limit of detection
[15] = Drug uptake in VEGF-stimulated mouse lung at 10 mg/kg, po after 4 hrs; type: ADME, organism-based; parameters: dose 10 mg/kg, route oral; conditions: read-out: Drug uptake
[16] = Plasma concentration in VEGF stimulated-mouse at 100 mg/kg, po after 4 hrs; type: ADME, organism-based; parameters: dose 100 mg/kg, route oral
[17] = Plasma concentration in VEGF stimulated-mouse at 60 mg/kg, po after 4 hrs; type: ADME, organism-based; parameters: dose 60 mg/kg, route oral
[18] = Drug uptake in human MDA-MB-231 cells xenografted mouse tumor at 10 mg/kg; type: ADME, organism-based, Neoplasm; parameters: dose 10 mg/kg; conditions: in vivo, read-out: Drug uptake
Lung = assay: Drug uptake in VEGF-stimulated mouse lung at 1 mg/kg, po after 4 hrs; type: ADME, organism-based; parameters: dose 1 mg/kg, route oral; conditions: in vivo, BLD = below limit of detection
Plasma [19] = assay: Plasma concentration in human MDA-MB-231 cells xenografted mouse at 1 mg/kg; type: ADME, organism-based; parameters: dose 1 mg/kg; conditions: in vivo, BLD = below limit of detection
Plasma [20] = assay: Plasma concentration in human MDA-MB-231 cells xenografted mouse at 60 mg/kg; type: ADME, organism-based; parameters: dose 60 mg/kg; conditions: in vivo
[21] = Drug uptake in human MDA-MB-231 cells xenografted mouse tumor at 60 mg/kg; type: ADME, organism-based, Neoplasm; parameters: dose 60 mg/kg; conditions: in vivo, read-out: Drug uptake
[22] = Drug uptake in VEGF-stimulated mouse lung at 60 mg/kg, po after 4 hrs; type: ADME, organism-based; parameters: dose 60 mg/kg, route oral; conditions: read-out: Drug uptake
[23] = Drug uptake in human MDA-MB-231 cells xenografted mouse tumor at 1 mg/kg; type: ADME, organism-based, Neoplasm; parameters: dose 1 mg/kg; conditions: in vivo, BLD = below limit of detection
[24] = Plasma concentration in athymic nu/nu mouse bearing human HT-29 tumor at 10 to 100 mg/kg, po administered QD for 14 days; type: ADME, organism-based; parameters: dose 10-100 mg/kg, route oral
[25] = Plasma concentration in VEGF stimulated-mouse at 30 mg/kg, po after 4 hrs; type: ADME, organism-based; parameters: dose 30 mg/kg, route oral
[26] = Drug uptake in VEGF-stimulated mouse lung at 30 mg/kg, po after 4 hrs; type: ADME, organism-based; parameters: dose 30 mg/kg, route oral; conditions: read-out: Drug uptake
[27] = Plasma concentration in VEGF stimulated-mouse at 1 mg/kg, po after 4 hrs; type: ADME, organism-based; parameters: dose 1 mg/kg, route oral
[28] = Plasma concentration in VEGF stimulated-mouse at 10 mg/kg, po after 4 hrs; type: ADME, organism-based; parameters: dose 10 mg/kg, route oral
[29] = Drug uptake in human MDA-MB-231 cells xenografted mouse tumor at 100 mg/kg; type: ADME, organism-based, Neoplasm; parameters: dose 100 mg/kg; conditions: in vivo, read-out: Drug uptake
Plasma [30] = assay: Plasma concentration in human MDA-MB-231 cells xenografted mouse at 100 mg/kg; type: ADME, organism-based; parameters: dose 100 mg/kg; conditions: in vivo
[31] = Drug uptake in human MDA-MB-231 cells xenografted mouse tumor at 30 mg/kg; type: ADME, organism-based, Neoplasm; parameters: dose 30 mg/kg; conditions: in vivo, read-out: Drug uptake

SMILES: CCN1CCC(Nc2ccc3c(c2)C(=C(c2ccccc2)c2nc4cc(OC)ccc4[nH]2)C(=O)N3)CC1 (mixture of isomers)
bioavailability [1]: 19% | clearance [2]: 108 mL/min/kg

SMILES: CCN1CCC(Nc2ccc3c(c2)C(=C(c2ccc(OC)cc2)c2nc4ccccc4[nH]2)C(=O)N3)CC1 (mixture of isomers)
half-life [3]: 7.5 h | AUC(0-inf) [4]: 0.33 µM·h | bioavailability [5]: 27%

SMILES: CCN1CCC(Nc2ccc3c(c2)C(=C(c2ccccc2)c2ncc[nH]2)C(=O)N3)CC1 (mixture of isomers)
half-life [3]: 11.6 h | AUC(0-inf) [4]: 1.5 µM·h | bioavailability [5]: 16%

SMILES: CCN1CCC(Nc2ccc3c(c2)C(=C(c2cccc(F)c2)c2ncc[nH]2)C(=O)N3)CC1 (mixture of isomers)
half-life [3]: 5.4 h | AUC(0-inf) [4]: 1.12 µM·h | bioavailability [5]: 15%

SMILES: CCN1CCC(Nc2ccc3c(c2)C(=C(c2ccc(Cl)cc2)c2ncc[nH]2)C(=O)N3)CC1 (mixture of isomers)
concentration at 4 h [6]: 70 nM | half-life [3]: 10.7 h | concentration (Plasma [7]): 200 nM | concentration at 4 h [8]: 10 nM | Papp [9]: 6.8 ×10⁻⁶ cm/s | concentration at 336 h [10]: 1000 nM | concentration at 4 h [11]: 3550 nM | concentration (Plasma [12]): 10 nM | concentration (Plasma [13]): 40 nM | Drug uptake [14]: BLD | concentration at 4 h [15]: 280 nM | concentration at 4 h [16]: 620 nM | AUC(0-inf) [4]: 5.04 µM·h | concentration at 4 h [17]: 10 nM | bioavailability [5]: 63% | concentration [18]: 340 nM | Drug uptake (Lung): BLD | Cp (Plasma [19]): BLD | concentration (Plasma [20]): 260 nM | concentration [21]: 3600 nM | concentration at 4 h [22]: 810 nM | Drug uptake [23]: BLD | concentration at 336 h [24]: 1000 nM | concentration at 4 h [25]: 10 nM | concentration at 4 h [26]: 470 nM | concentration at 4 h [27]: 4 nM | concentration at 4 h [28]: 20 nM | concentration [29]: 8800 nM | concentration (Plasma [30]): 800 nM | concentration [31]: 1400 nM

SMILES: CCN1CCC(Nc2ccc3c(c2)C(=C(c2cccc(F)c2)c2ncc(C)[nH]2)C(=O)N3)CC1 (mixture of isomers)
half-life [3]: 4.6 h | AUC(0-inf) [4]: 1.9 µM·h | bioavailability [5]: 20%

SMILES: CCN1CCC(Nc2ccc3c(c2)C(=C(c2cc(F)cc(F)c2)c2nc(C)c[nH]2)C(=O)N3)CC1 (mixture of isomers)
half-life [3]: 7.2 h | AUC(0-inf) [4]: 5.19 µM·h | bioavailability [5]: 59%

SMILES: CCN1CCC(Nc2ccc3c(c2)C(=C(c2nc(C)c[nH]2)c2ccccc2F)C(=O)N3)CC1 (mixture of isomers)
half-life [3]: 2.3 h | AUC(0-inf) [4]: 1.03 µM·h | bioavailability [5]: 25%

Now from value to compound:

half-life [3]: 5.7 h | AUC(0-inf) [4]: 1.44 µM·h | bioavailability [5]: 37%
SMILES: CCN1CCC(Nc2ccc3c(c2)C(=C(c2ccccc2)c2nc4ccccc4[nH]2)C(=O)N3)CC1 (mixture of isomers)

half-life [3]: 4.6 h | AUC(0-inf) [4]: 2.36 µM·h | bioavailability [5]: 55%
SMILES: CCN1CCC(Nc2ccc3c(c2)C(=C(c2ccc(C)cc2)c2nc4ccccc4[nH]2)C(=O)N3)CC1 (mixture of isomers)

half-life [3]: 4.4 h | AUC(0-inf) [4]: 1.99 µM·h | bioavailability [5]: 63%
SMILES: CCN1CCC(Nc2ccc3c(c2)C(=C(c2cccc(F)c2)c2nc4ccccc4[nH]2)C(=O)N3)CC1 (mixture of isomers)

half-life [3]: 3.8 h | AUC(0-inf) [4]: 3.14 µM·h | bioavailability [5]: 72%
SMILES: CCN1CCC(Nc2ccc3c(c2)C(=C(c2cc(F)cc(F)c2)c2nc4ccccc4[nH]2)C(=O)N3)CC1 (mixture of isomers)

Reference: ChEMBL document CHEMBL2086224, “The design, synthesis, and biological evaluation of potent receptor tyrosine kinase inhibitors” (Bioorg Med Chem Lett, 2012)
